As usually defined, the IC50 is the point on the concentration scale where inhibition reaches its midpoint.

Consider ten compounds from patent US20250129021A1, “SMALL MOLECULE PROTEIN SYNTHESIS MODULATORS” (Interdict Bio, Inc., priority 2023, published 2025).

What all share (type): biochemical
Conditions in all cases: HeLa S3 lysate, sfGFP/mCherry ratio, 2 hrs at 30° C.

In one assay the test system is ALK. Briefly: In vitro transcription-translation (IVTT) assay, ALK reporter. A digest of the protocol: (§1)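 Reporter: mCherry, P2A, then 3×FLAG-target peptide-sfGFP fusion, IRES-initiated; HeLa S3 lysate IVTT; cpd dilutions 30 μM−0.1 μM half-log in 100% DMSO (dilution-plate conc); DNA added last; 2 h, 30° C; PBS quench.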
The next assay concerns KRAS G12D. Put plainly: In vitro transcription-translation (IVTT) assay, KRAS G12D reporter. Summed up: as §1
Another assay deals with MYC. Briefly: In vitro transcription-translation (IVTT) assay, MYC reporter. Summed up:
as §1

The structures appear in SMILES notation. Some results are limits rather than exact numbers.

Consider `COc1ccc(C[C@H]2NC[C@H](O)[C@H]2OC(=O)NCCOCCN2C(=O)CNC2=O)cc1` [V187627], for which the half-inhibitory concentration (IC50) is < 10 µM with ALK, 20 to 30 µM in the assay on KRAS G12D and 10 to 20 µM in the assay on MYC.

In the case of `CCNc1c(NCCNC(=O)O[C@@H]2[C@@H](O)CN[C@@H]2Cc2ccc(OC)cc2)c(=O)c1=O` [V187589, (2R,3S,4S)-4-hydroxy-2-[(4-methoxyphenyl)methyl]pyrrolidin-3-yl N-(2-{[2-(ethylamino)-3,4-dioxocyclobut-1-en-1-yl]amino}ethyl)carbamate; trifluoroacetic acid], the half-inhibitory concentration (IC50) with ALK, in the assay with KRAS G12D and in the assay on MYC was > 30 µM each time.

With `COc1ccc(C[C@H]2NC[C@H](O)[C@H]2OC(=O)NC[C@@H]2CCCN2)cc1` [V187684, (2R,3S,4S)-4-hydroxy-2-[(4-methoxyphenyl)methyl]pyrrolidin-3-yl N-[(2S)-pyrrolidin-2-ylmethyl]carbamate; trifluoroacetic acid], the IC50 in the assay with ALK is > 30 µM; in the assay on KRAS G12D, > 30 µM; with MYC it was 20 to 30 µM.

`COCCN(CCNC(=O)O[C@@H]1[C@H](O)CN[C@H]1Cc1ccc(OC)cc1)CCc1ccccc1` [V187508, (2S,3S,4R)-4-hydroxy-2-[(4-methoxyphenyl)methyl]pyrrolidin-3-yl N-{2-[(2-methoxyethyl)(2-phenylethyl)amino]ethyl}carbamate]: the IC50 in the assay on ALK was 10 to 20 µM; in the assay on KRAS G12D, > 30 µM; in the assay with MYC, > 30 µM.

Turning to `CCN(CC)Cc1nnc(NC(=O)O[C@@H]2[C@@H](O)CN[C@@H]2Cc2ccc(OC)cc2)s1` [V187552, (2R,3S,4S)-4-hydroxy-2-[(4-methoxyphenyl)methyl]pyrrolidin-3-yl N-{5-[(diethylamino)methyl]-1,3,4-thiadiazol-2-yl}carbamate; trifluoroacetic acid], the IC50 in the assay on ALK, in the assay on KRAS G12D and with MYC was > 30 µM each time.

Turning to `COc1ccc(C[C@H]2NC[C@H](O)[C@H]2OC(=O)NCCN2CC(N)C2)cc1` [V187624, (2R,3S,4S)-4-hydroxy-2-[(4-methoxyphenyl)methyl]pyrrolidin-3-yl N-[2-(3-aminoazetidin-1-yl)ethyl]carbamate], the figures for the half-inhibitory concentration (IC50) with ALK, in the assay with KRAS G12D and in the assay on MYC were < 10 µM, > 30 µM and > 30 µM, respectively.

As to `COc1ccc(C[C@H]2NC[C@H](O)[C@H]2OC(=O)NC[C@@H]2CCCO2)cc1` [V187520, (2R,3S,4S)-4-hydroxy-2-[(4-methoxyphenyl)methyl]pyrrolidin-3-yl N-[(2S)-oxolan-2-ylmethyl]carbamate; trifluoroacetic acid], the IC50 is < 10 µM with ALK, > 30 µM in the assay on KRAS G12D and 20 to 30 µM in the assay on MYC.

Turning to `CCCCN(CCCC)CCNC(=O)O[C@@H]1[C@@H](O)CN[C@@H]1Cc1ccc(OC)cc1` [V187382, (2R,3S,4S)-4-hydroxy-2-[(4-methoxyphenyl)methyl]pyrrolidin-3-yl N-[2-(dibutylamino)ethyl]carbamate], the IC50 in the assay on ALK, in the assay on KRAS G12D and with MYC was > 30 µM throughout.

`COc1ccc(C[C@H]2NC[C@H](O)[C@H]2OC(=O)NC2CNC2)cc1` [V187679, (2R,3S,4S)-4-hydroxy-2-(4-methoxybenzyl)pyrrolidin-3-yl azetidin-3-ylcarbamate]: the 50% inhibitory concentration (IC50) with ALK was 10 to 20 µM; in the assay on KRAS G12D, > 30 µM; in the assay on MYC, > 30 µM.

`COc1ccc(C[C@H]2NC[C@H](O)[C@H]2OC(=O)NCCc2cnn(Cc3ccccc3)c2)cc1` [V187439, (2R,3S,4S)-4-hydroxy-2-(4-methoxybenzyl)pyrrolidin-3-yl (2-(1-benzyl-1H-pyrazol-4-yl)ethyl) carbamate]: the half-maximal inhibitory concentration (IC50) in the assay with ALK was < 10 µM; with KRAS G12D, 20 to 30 µM; in the assay with MYC it was < 10 µM.
